Results as given in ChEMBL document CHEMBL1201862, “PubChem BioAssay data set” (2004).
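Cultured in 96-well plates, cells were exposed to test compound for 48 hours across five concentrations. At the GI50, growth is halved.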 The source made the active and inactive calls. No stated cut-off is given here; in the data, active = GI50 up to about 1.1 µM and inactive = higher.

What was measured:
Assay in all cases: growth of human tumour cells (NCI), 48 h
786-0 = test system: 786-0
A498 = test system: A498
A549 = test system: A549
ACHN = test system: ACHN
BT-549 = test system: BT-549
CAKI-1 = test system: CAKI-1
CCRF-CEM = test system: CCRF-CEM
COLO 205 = test system: COLO 205
DU-145 = test system: DU-145
EKVX = test system: EKVX
HCC 2998 = test system: HCC 2998
HCT-116 = test system: HCT-116
HCT-15 = test system: HCT-15
HL-60 = test system: HL-60
HOP-62 = test system: HOP-62
HOP-92 = test system: HOP-92
HT-29 = test system: HT-29
Hs-578T = test system: Hs-578T
IGROV-1 = test system: IGROV-1
K562 = test system: K562
KM12 = test system: KM12
LOX IMVI = test system: LOX IMVI
M14 = test system: M14
MCF7 = test system: MCF7
MDA-MB-435 = test system: MDA-MB-435
MDA-N = test system: MDA-N
MOLT-4 = test system: MOLT-4
Malme-3M = test system: Malme-3M
NCI-H226 = test system: NCI-H226
NCI-H23 = test system: NCI-H23
NCI-H460 = test system: NCI-H460
NCI-H522 = test system: NCI-H522
NCI/ADR-RES = test system: NCI/ADR-RES
OVCAR-3 = test system: OVCAR-3
OVCAR-4 = test system: OVCAR-4
OVCAR-5 = test system: OVCAR-5
OVCAR-8 = test system: OVCAR-8
PC-3 = test system: PC-3
RPMI-8226 = test system: RPMI-8226
RXF 393 = test system: RXF 393
SF-268 = test system: SF-268
SF-295 = test system: SF-295
SF-539 = test system: SF-539
SK-MEL-28 = test system: SK-MEL-28
SK-MEL-2 = test system: SK-MEL-2
SK-MEL-5 = test system: SK-MEL-5
SN12C = test system: SN12C
SNB-19 = test system: SNB-19
SNB-75 = test system: SNB-75
SW-620 = test system: SW-620
T47D = test system: T47D
TK-10 = test system: TK-10
U-251 = test system: U-251
UACC-257 = test system: UACC-257
UACC-62 = test system: UACC-62
UO-31 = test system: UO-31
MDA-MB-231 = test system: MDA-MB-231
SK-OV-3 = test system: SK-OV-3
SR = test system: SR

Cc1cccc2c1C(=O)/C(=C/c1ccccc1C(=O)O)C2
GI50 (786-0): > 100 µM (inactive) | GI50 (A498): > 100 µM (inactive) | GI50 (A549): > 100 µM (inactive) | GI50 (ACHN): > 100 µM (inactive) | GI50 (BT-549): > 100 µM (inactive) | GI50 (CAKI-1): > 100 µM (inactive) | GI50 (CCRF-CEM): > 100 µM (inactive) | GI50 (COLO 205): > 100 µM (inactive) | GI50 (DU-145): > 100 µM (inactive) | GI50 (EKVX): 66.8 µM (inactive) | GI50 (HCC 2998): > 100 µM (inactive) | GI50 (HCT-116): 98.6 µM (inactive) | GI50 (HCT-15): > 100 µM | GI50 (HL-60): > 100 µM (inactive) | GI50 (HOP-62): > 100 µM (inactive) | GI50 (HOP-92): > 100 µM (inactive) | GI50 (HT-29): > 100 µM (inactive) | GI50 (Hs-578T): > 100 µM (inactive) | GI50 (IGROV-1): > 100 µM (inactive) | GI50 (K562): > 100 µM (inactive) | GI50 (KM12): > 100 µM (inactive) | GI50 (LOX IMVI): > 100 µM (inactive) | GI50 (M14): > 100 µM (inactive) | GI50 (MCF7): > 100 µM (inactive) | GI50 (MDA-MB-435): > 100 µM (inactive) | GI50 (MDA-N): > 100 µM (inactive) | GI50 (MOLT-4): > 100 µM (inactive) | GI50 (Malme-3M): > 100 µM (inactive) | GI50 (NCI-H226): 98.4 µM (inactive) | GI50 (NCI-H23): > 100 µM (inactive) | GI50 (NCI-H460): > 100 µM (inactive) | GI50 (NCI-H522): > 100 µM (inactive) | GI50 (NCI/ADR-RES): > 100 µM (inactive) | GI50 (OVCAR-3): > 100 µM (inactive) | GI50 (OVCAR-4): > 100 µM (inactive) | GI50 (OVCAR-5): > 100 µM (inactive) | GI50 (OVCAR-8): > 100 µM (inactive) | GI50 (PC-3): > 100 µM (inactive) | GI50 (RPMI-8226): 32.8 µM (inactive) | GI50 (RXF 393): > 100 µM (inactive) | GI50 (SF-268): > 100 µM (inactive) | GI50 (SF-295): > 100 µM (inactive) | GI50 (SF-539): > 100 µM (inactive) | GI50 (SK-MEL-28): > 100 µM (inactive) | GI50 (SK-MEL-2): > 100 µM (inactive) | GI50 (SK-MEL-5): 37.5 µM (inactive) | GI50 (SN12C): > 100 µM (inactive) | GI50 (SNB-19): > 100 µM (inactive) | GI50 (SNB-75): 85.3 µM (inactive) | GI50 (SW-620): > 100 µM (inactive) | GI50 (T47D): > 100 µM (inactive) | GI50 (TK-10): > 100 µM (inactive) | GI50 (U-251): > 100 µM (inactive) | GI50 (UACC-257): > 100 µM (inactive) | GI50 (UACC-62): > 100 µM (inactive) | GI50 (UO-31): > 100 µM (inactive)

O=C1NNC2NC(=O)C3(NN2C1=O)c1ccccc1-c1ccccc13 (stereo unspecified)
GI50 (786-0): > 100 µM (inactive) | GI50 (A498): > 100 µM (inactive) | GI50 (A549): > 100 µM (inactive) | GI50 (ACHN): > 100 µM (inactive) | GI50 (BT-549): > 100 µM (inactive) | GI50 (CAKI-1): > 100 µM (inactive) | GI50 (CCRF-CEM): > 100 µM (inactive) | GI50 (COLO 205): > 100 µM (inactive) | GI50 (DU-145): > 100 µM (inactive) | GI50 (EKVX): > 100 µM (inactive) | GI50 (HCC 2998): > 100 µM (inactive) | GI50 (HCT-116): > 100 µM (inactive) | GI50 (HCT-15): > 100 µM | GI50 (HL-60): > 100 µM (inactive) | GI50 (HOP-62): > 100 µM (inactive) | GI50 (HOP-92): > 100 µM (inactive) | GI50 (HT-29): > 100 µM (inactive) | GI50 (Hs-578T): > 100 µM (inactive) | GI50 (IGROV-1): > 100 µM (inactive) | GI50 (K562): > 100 µM (inactive) | GI50 (LOX IMVI): > 100 µM (inactive) | GI50 (M14): > 100 µM (inactive) | GI50 (MCF7): > 100 µM (inactive) | GI50 (MDA-MB-231): > 100 µM (inactive) | GI50 (MDA-MB-435): > 100 µM (inactive) | GI50 (MDA-N): > 100 µM (inactive) | GI50 (Malme-3M): > 100 µM (inactive) | GI50 (NCI-H226): > 100 µM (inactive) | GI50 (NCI-H23): > 100 µM (inactive) | GI50 (NCI-H460): > 100 µM (inactive) | GI50 (NCI-H522): > 100 µM (inactive) | GI50 (NCI/ADR-RES): > 100 µM (inactive) | GI50 (OVCAR-3): > 100 µM (inactive) | GI50 (OVCAR-4): > 100 µM (inactive) | GI50 (OVCAR-5): > 100 µM (inactive) | GI50 (OVCAR-8): > 100 µM (inactive) | GI50 (PC-3): > 100 µM (inactive) | GI50 (RXF 393): > 100 µM (inactive) | GI50 (SF-268): > 100 µM (inactive) | GI50 (SF-295): > 100 µM (inactive) | GI50 (SF-539): > 100 µM (inactive) | GI50 (SK-MEL-28): > 10 µM (inactive) | GI50 (SK-MEL-2): > 100 µM (inactive) | GI50 (SK-MEL-5): > 100 µM (inactive) | GI50 (SK-OV-3): > 100 µM (inactive) | GI50 (SN12C): > 100 µM (inactive) | GI50 (SNB-19): > 100 µM (inactive) | GI50 (SNB-75): > 100 µM (inactive) | GI50 (SR): > 100 µM (inactive) | GI50 (SW-620): > 100 µM (inactive) | GI50 (TK-10): > 100 µM (inactive) | GI50 (U-251): > 100 µM (inactive) | GI50 (UACC-257): > 100 µM (inactive) | GI50 (UACC-62): > 100 µM (inactive) | GI50 (UO-31): > 100 µM (inactive)
